Measured values taken from patent US20170107207A1, “AMINOPYRAZOLONE DERIVATIVE” (DAIICHI SANKYO COMPANY, LIMITED, priority 2014, published 2017).

Experiments:
TIP48/TIP49 complex = molecular target: T1, TIP48/TIP49 complex (Homo sapiens, UniProt Q9Y230+Q9Y265); test: ATPase assay of TIP48/TIP49 complex (ADP-Glo); assay type: biochemical; conditions: concentration at which the ATPase activity was inhibited by 50%
T1 construct: made in house; host or cells: E. coli
Method in brief: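 Recombinant human TIP48 and TIP49 expressed in E. coli (24.5 μg/mL final) were incubated 1.5 h at room temperature with compound (0.0007–200 μM, 2% DMSO) in Tris-HCl pH 7.5 buffer containing MgCl2 and ATP. ADP formed was detected by ADP-Glo luminescence; inhibition came from dose-response curves.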

[1] = system: human lymphoma cell line RAMOS cells; test: Cell growth inhibition test using RAMOS cell, ATP assay (CellTiter-Glo); assay type: cell-based; conditions: Homo sapiens, Ramos, 72 h, cultured 3 days, 50% growth inhibition concentration
Method in brief: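 RAMOS cells seeded at 4000 cells/well with compound and cultured 3 days at 37° C, 5% CO2; viability by CellTiter-Glo luminescence. Growth rate T/C % = 100×[(B−C)/(A−C)] using day-0 and final readings; GI50 interpolated from the two concentrations bracketing 50% growth.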

T1 sequence (Q9Y230 whole entry): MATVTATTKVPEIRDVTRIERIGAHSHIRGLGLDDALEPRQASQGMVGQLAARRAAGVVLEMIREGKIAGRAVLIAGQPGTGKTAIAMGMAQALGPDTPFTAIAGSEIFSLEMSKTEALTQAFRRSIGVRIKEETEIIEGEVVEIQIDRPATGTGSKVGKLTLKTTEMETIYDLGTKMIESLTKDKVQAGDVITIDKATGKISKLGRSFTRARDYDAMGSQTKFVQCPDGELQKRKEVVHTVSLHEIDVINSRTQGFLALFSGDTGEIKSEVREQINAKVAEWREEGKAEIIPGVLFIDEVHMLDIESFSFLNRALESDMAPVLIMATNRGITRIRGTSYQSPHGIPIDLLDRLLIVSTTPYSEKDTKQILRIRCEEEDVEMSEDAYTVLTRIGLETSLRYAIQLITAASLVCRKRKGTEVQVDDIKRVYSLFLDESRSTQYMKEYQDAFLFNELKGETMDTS
T1 sequence (Q9Y265 whole entry): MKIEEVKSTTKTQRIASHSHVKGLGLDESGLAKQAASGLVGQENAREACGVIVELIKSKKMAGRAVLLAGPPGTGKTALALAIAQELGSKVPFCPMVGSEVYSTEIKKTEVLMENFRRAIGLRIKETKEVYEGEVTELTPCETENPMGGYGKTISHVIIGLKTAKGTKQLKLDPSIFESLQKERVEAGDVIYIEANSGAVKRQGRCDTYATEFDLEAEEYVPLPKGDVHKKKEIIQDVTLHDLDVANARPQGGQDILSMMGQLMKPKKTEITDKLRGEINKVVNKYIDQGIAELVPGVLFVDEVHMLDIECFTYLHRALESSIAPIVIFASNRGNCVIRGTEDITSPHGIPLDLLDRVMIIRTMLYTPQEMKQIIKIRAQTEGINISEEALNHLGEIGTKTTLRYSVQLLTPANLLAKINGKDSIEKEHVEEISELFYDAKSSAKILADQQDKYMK

IC50 (TIP48/TIP49 complex)	GI50 [1]	SMILES
84 nM	160 nM	CCOc1cc(F)c(Cl)cc1C(=O)NCC(C)(C)CC(=O)Nc1c([C@H](C)CN(C)C)n(C)n(-c2ccccc2)c1=O [Example 70, 5-Chloro-N-[4-({5-[(1R)-2-(dimethylamino)-1-methylethyl]-1-methyl-3-oxo-2-phenyl-2,3-dihydro-1H-pyrazol-4-yl}amino)-2,2-dimethyl-4-oxobutyl]-2-ethoxy-4-fluorobenzamide]
90 nM	420 nM	CCOc1ncc(Cl)cc1C(=O)NCC(C)(C)CC(=O)Nc1c(C(C)CN(C)C)n(C)n(-c2ccccc2)c1=O (stereo not shown) [Example 71, 5-Chloro-N-[4-({5-[2-(dimethylamino)-1-methylethyl]-1-methyl-3-oxo-2-phenyl-2,3-dihydro-1H-pyrazol-4-yl}amino)-2,2-dimethyl-4-oxobutyl]-2-ethoxypyridine-3-carboxamide]
180 nM	470 nM	CCOc1ncc(Br)cc1C(=O)NCC(C)(C)CC(=O)Nc1c(C(C)CN(C)C)n(C)n(-c2ccccc2)c1=O (stereo not shown) [Example 74, 5-Bromo-N-[4-({5-[2-(dimethylamino)-1-methylethyl]-1-methyl-3-oxo-2-phenyl-2,3-dihydro-1H-pyrazol-4-yl}amino)-2,2-dimethyl-4-oxobutyl]-2-ethoxypyridine-3-carboxamide]
92 nM	800 nM	CCOc1ncc(Cl)cc1C(=O)NCC(C)(C)CC(=O)Nc1c(C(C)CNC)n(C)n(-c2ccccc2)c1=O (stereo not shown) [Example 77, 5-Chloro-N-[2,2-dimethyl-4-({1-methyl-5-[1-methyl-2-(methylamino)ethyl]-3-oxo-2-phenyl-2,3-dihydro-1H-pyrazol-4-yl}amino)-4-oxobutyl]-2-ethoxypyridine-3-carboxamide]
70 nM	480 nM	CNCC(C)c1c(NC(=O)CC(C)(C)CNC(=O)c2cc(Cl)cc3cc(C)oc23)c(=O)n(-c2ccccc2)n1C (stereo not shown) [Example 78, 5-Chloro-N-[2,2-dimethyl-4-({1-methyl-5-[1-methyl-2-(methylamino)ethyl]-3-oxo-2-phenyl-2,3-dihydro-1H-pyrazol-4-yl}amino)-4-oxobutyl]-2-methylbenzofuran-7-carboxamide]
51 nM	140 nM	CCOc1ccc(Cl)cc1C(=O)NCC(C)(C)CC(=O)Nc1c(C(CN(C)C)OC)n(C)n(-c2ccccc2)c1=O (stereo not shown) [Example 79, 5-Chloro-N-[4-({5-[2-(dimethylamino)-1-methoxyethyl]-1-methyl-3-oxo-2-phenyl-2,3-dihydro-1H-pyrazol-4-yl}amino)-2,2-dimethyl-4-oxobutyl]-2-ethoxybenzamide]
140 nM	170 nM	CCOc1cc(F)c(Cl)cc1C(=O)NCC(C)(C)CC(=O)Nc1c(C(CN(C)C)OC)n(C)n(-c2ccccc2)c1=O (stereo not shown) [Example 80, 5-Chloro-N-[4-({5-[2-(dimethylamino)-1-methoxyethyl]-1-methyl-3-oxo-2-phenyl-2,3-dihydro-1H-pyrazol-4-yl}amino)-2,2-dimethyl-4-oxobutyl]-2-ethoxy-4-fluorobenzamide]
80 nM	170 nM	CCOc1ccc(Cl)cc1C(=O)NCC(C)(C)CC(=O)Nc1c(C(C)(C)CN(C)C)n(C)n(-c2ccccc2)c1=O [Example 84, 5-Chloro-N-[4-({5-[2-(dimethylamino)-1,1-dimethylethyl]-1-methyl-3-oxo-2-phenyl-2,3-dihydro-1H-pyrazol-4-yl}amino)-2,2-dimethyl-4-oxobutyl]-2-ethoxybenzamide]
52 nM	120 nM	CCOc1ccc(Cl)cc1C(=O)NCC(C)(C)CC(=O)Nc1c(C(C)C(C)(C)N(C)C)n(C)n(-c2ccccc2)c1=O (stereo not shown) [Example 87, 5-Chloro-N-[4-({5-[2-(dimethylamino)-1,2-dimethylpropyl]-1-methyl-3-oxo-2-phenyl-2,3-dihydro-1H-pyrazol-4-yl}amino)-2,2-dimethyl-4-oxobutyl]-2-ethoxybenzamide]
110 nM	180 nM	CCOc1ccc(Cl)cc1C(=O)NCC(C)(C)C(F)C(=O)Nc1c(CCN(C)C)n(C)n(-c2ccccc2)c1=O (stereo not shown) [Example 91, 5-Chloro-N-[4-({5-[2-(dimethylamino)ethyl]-1-methyl-3-oxo-2-phenyl-2,3-dihydro-1H-pyrazol-4-yl}amino)-3-fluoro-2,2-dimethyl-4-oxobutyl]-2-ethoxybenzamide]
26 nM	560 nM	CCOc1cc(F)c(Cl)cc1C(=O)NCC(C)(C)CC(=O)Nc1c(C)n(C)n(-c2ccccc2)c1=O [Example 92, 5-Chloro-N-{4-[(1,5-dimethyl-3-oxo-2-phenyl-2,3-dihydro-1H-pyrazol-4-yl)amino]-2,2-dimethyl-4-oxobutyl}-2-ethoxy-4-fluorobenzamide]
460 nM	140 nM	CCOc1cc(F)c(Cl)cc1C(=O)NCC(C)(C)CC(=O)Nc1c(C(C)OC)n(C)n(-c2ccccc2)c1=O (stereo not shown) [Example 122, 5-Chloro-2-ethoxy-4-fluoro-N-(4-{[5-(1-methoxyethyl)-1-methyl-3-oxo-2-phenyl-2,3-dihydro-1H-pyrazol-4-yl]amino}-2,2-dimethyl-4-oxobutyl)benzamide]
39 nM	120 nM	CCOc1cc(F)c(Cl)cc1C(=O)NCC(C)(C)CC(=O)Nc1c([C@H](C)OC)n(C)n(-c2ccccc2)c1=O [Example 123, 5-Chloro-2-ethoxy-4-fluoro-N-(4-{[5-((1S)-methoxyethyl)-1-methyl-3-oxo-2-phenyl-2,3-dihydro-1H-pyrazol-4-yl]amino}-2,2-dimethyl-4-oxobutyl)benzamide]
36 nM	140 nM	CCOc1ccc(Cl)cc1C(=O)NCC(C)(C)CC(=O)Nc1c(C(C)OC)n(C)n(-c2ccccc2)c1=O (stereo not shown) [Example 125, 5-Chloro-2-ethoxy-N-(4-{[5-(1-methoxyethyl)-1-methyl-3-oxo-2-phenyl-2,3-dihydro-1H-pyrazol-4-yl]amino}-2,2-dimethyl-4-oxobutyl)benzamide]

Further lines, the compound ahead of its results:

SMILES	IC50 (TIP48/TIP49 complex)	GI50 [1]
CCOc1ncc(Cl)cc1C(=O)NCC(C)(C)CC(=O)Nc1c([C@@H](C)CN(C)C)n(C)n(-c2ccccc2)c1=O [Example 72, 5-Chloro-N-[4-({5-[(1S)-2-(dimethylamino)-1-methylethyl]-1-methyl-3-oxo-2-phenyl-2,3-dihydro-1H-pyrazol-4-yl}amino)-2,2-dimethyl-4-oxobutyl]-2-ethoxypyridine-3-carboxamide]	80 nM	510 nM
COCOc1cc(Cl)c(Cl)cc1C(=O)NCC(C)(C)CC(=O)Nc1c(C(C)CN(C)C)n(C)n(-c2ccccc2)c1=O (stereo not shown) [Example 75, 4,5-Dichloro-N-[4-({5-[2-(dimethylamino)-1-methylethyl]-1-methyl-3-oxo-2-phenyl-2,3-dihydro-1H-pyrazol-4-yl}amino)-2,2-dimethyl-4-oxobutyl]-2-(methoxymethoxy)benzamide]	99 nM	270 nM
CCOc1ccc(Cl)cc1C(=O)NCC(C)(C)CC(=O)Nc1c(C(C)CNC)n(C)n(-c2ccccc2)c1=O (stereo not shown) [Example 76, 5-Chloro-N-[2,2-dimethyl-4-({1-methyl-5-[1-methyl-2-(methylamino)ethyl]-3-oxo-2-phenyl-2,3-dihydro-1H-pyrazol-4-yl}amino)-4-oxobutyl]-2-ethoxybenzamide]	68 nM	590 nM
CCOc1ncc(Cl)cc1C(=O)NCC(C)(C)CC(=O)Nc1c(C(CN(C)C)OC)n(C)n(-c2ccccc2)c1=O (stereo not shown) [Example 81, 5-Chloro-N-[4-({5-[2-(dimethylamino)-1-methoxyethyl]-1-methyl-3-oxo-2-phenyl-2,3-dihydro-1H-pyrazol-4-yl}amino)-2,2-dimethyl-4-oxobutyl]-2-ethoxypyridine-3-carboxamide]	210 nM	410 nM
CCOc1cc(F)c(Cl)cc1C(=O)NCC(C)(C)CC(=O)Nc1c(CCCCN(C)C)n(C)n(-c2ccccc2)c1=O [Example 89, 5-Chloro-N-[4-({5-[4-(dimethylamino)butyl]-1-methyl-3-oxo-2-phenyl-2,3-dihydro-1H-pyrazol-4-yl}amino)-2,2-dimethyl-4-oxobutyl]-2-ethoxy-4-fluorobenzamide]	90 nM	170 nM
Cc1cc2cc(Cl)cc(C(=O)NCC(C)(C)CC(=O)Nc3c(CCCCN(C)C)n(C)n(-c4ccccc4)c3=O)c2o1 [Example 90, 5-Chloro-N-[4-({5-[4-(dimethylamino)butyl]-1-methyl-3-oxo-2-phenyl-2,3-dihydro-1H-pyrazol-4-yl}amino)-2,2-dimethyl-4-oxobutyl]-2-methylbenzofuran-7-carboxamide]	28 nM	140 nM
COCOc1ccc(Cl)cc1C(=O)NCC(C)(C)CC(=O)Nc1c(COC)n(C)n(-c2ccccc2)c1=O [Example 115, 5-Chloro-2-(methoxymethoxy)-N-(4-{[5-(methoxymethyl)-1-methyl-3-oxo-2-phenyl-2,3-dihydro-1H-pyrazol-4-yl]amino}-2,2-dimethyl-4-oxobutyl)benzamide]	41 nM	130 nM
COCOc1cc(F)c(Cl)cc1C(=O)NCC(C)(C)CC(=O)Nc1c(COC)n(C)n(-c2ccccc2)c1=O [Example 116, 5-Chloro-4-fluoro-2-(methoxymethoxy)-N-(4-{[5-(methoxymethyl)-1-methyl-3-oxo-2-phenyl-2,3-dihydro-1H-pyrazol-4-yl]amino}-2,2-dimethyl-4-oxobutyl)benzamide]	14 nM	140 nM
CCOc1cc(F)c(Cl)cc1C(=O)NCC(C)(C)CC(=O)Nc1c([C@@H](C)OC)n(C)n(-c2ccccc2)c1=O [Example 124, 5-Chloro-2-ethoxy-4-fluoro-N-(4-{[5-((1R)-1-methoxyethyl)-1-methyl-3-oxo-2-phenyl-2,3-dihydro-1H-pyrazol-4-yl]amino}-2,2-dimethyl-4-oxobutyl)benzamide]	38 nM	140 nM
